Test results reported in ChEMBL document CHEMBL1250441, “Antitumor agents 273. Design and synthesis of N-alkyl-thiocolchicinoids as potential antitumor agents” (Bioorg Med Chem Lett, 2010).
≈ marks a conversion by molar mass, not a printed value.

Legend:
[1] = test system: A549; test: Cytotoxicity against human A549 cells after 2 days; format: functional; conditions: A549, 48 h, read-out: ED50 (the source's name)
[2] = test system: DU-145; test: Cytotoxicity against human DU145 cells after 2 days; format: functional; conditions: DU-145, 48 h, read-out: ED50 (the source's name)
[3] = Cytotoxicity against human KBVIN cells expressing p-glycoprotein after 2 days; format: functional; conditions: 48 h, read-out: ED50 (the source's name)
[4] = Inhibition of tubulin assembly
[5] = test system: SK-BR-3; test: Cytotoxicity against human SKBR3 cells after 2 days; format: functional; conditions: SK-BR-3, 48 h, read-out: ED50 (the source's name)
[6] = test system: KB; test: Cytotoxicity against human KB cells after 2 days; format: functional; conditions: 48 h, read-out: ED50 (the source's name)
[7] = test system: HCT-8; test: Cytotoxicity against human HCT8 cells after 2 days; format: functional; conditions: HCT-8, 48 h, read-out: ED50 (the source's name)
[8] = Solubility of the compound in water; format: physicochemical; conditions: buffer
[9] = test system: SK-BR-3; test: Selectivity ratio of ED50 for human SKBR3 cells to ED50 for human KB cells; format: functional
[10] = Selectivity ratio of ED50 for human HCT8 cells to ED50 for human KBVIN cells; format: functional
[11] = test system: A549; test: Selectivity ratio of ED50 for human SKBR3 cells to ED50 for human A549 cells; format: functional
[12] = test system: A549; test: Selectivity ratio of ED50 for human HCT8 cells to ED50 for human A549 cells; format: functional
[13] = test system: SK-BR-3; test: Selectivity ratio of ED50 for human SKBR3 cells to ED50 for human KBVIN cells; format: functional
[14] = test system: HCT-8; test: Selectivity ratio of ED50 for human HCT8 cells to ED50 for human KB cells; format: functional
[15] = test system: SK-BR-3; test: Selectivity ratio of ED50 for human SKBR3 cells to ED50 for human DU145 cells; format: functional
[16] = test system: DU-145; test: Selectivity ratio of ED50 for human HCT8 cells to ED50 for human DU145 cells; format: functional

Row | SMILES | EC50 [1] [µg/mL] | EC50 [2] [µg/mL] | EC50 [3] [µg/mL] | IC50 [4] [µM] | EC50 [5] [µg/mL] | EC50 [6] [µg/mL] | EC50 [7] [µg/mL] | solubility [8] [mg/mL] | Ratio ED50 [9] | Ratio ED50 [10] | Ratio ED50 [11] | Ratio ED50 [12] | Ratio ED50 [13] | Ratio ED50 [14] | Ratio ED50 [15] | Ratio ED50 [16]
1 | CN[C@H]1CCc2cc(OC)c(OP(=O)(O)O)c(OC)c2-c2ccc(SC)c(=O)cc21 | 0.533 (≈ 1.18 µM) | 0.157 (≈ 0.347 µM) | 1.71 (≈ 3.76 µM) | > 40 | 0.137 (≈ 0.302 µM) | 0.25 (≈ 0.551 µM) | > 1 | 15 (≈ 33100 µM) |  |  |  |  |  |  |  | 
2 | COc1cc2c(c(OC)c1O)-c1ccc(SC)c(=O)cc1[C@@H](N(C)S(=O)(=O)c1ccccc1[N+](=O)[O-])CC2 | 1.68 (≈ 3.01 µM) | 1.15 (≈ 2.06 µM) | 1.49 (≈ 2.67 µM) | 3.6 | 1.01 (≈ 1.81 µM) | 0.72 (≈ 1.29 µM) | > 1 |  |  |  |  |  |  |  |  | 
3 | CCN[C@H]1CCc2cc(OC)c(OC)c(OC)c2-c2ccc(SC)c(=O)cc21 | 0.0193 (≈ 0.0481 µM) | 0.0138 (≈ 0.0344 µM) | 0.0146 (≈ 0.0364 µM) | 5.4 | 0.0141 (≈ 0.0351 µM) | 0.02 (≈ 0.0498 µM) | 0.031 (≈ 0.0772 µM) |  |  |  |  |  |  |  |  | 
4 | CN[C@H]1CCc2cc(OC)c(O)c(OC)c2-c2ccc(SC)c(=O)cc21 | 1.55 (≈ 4.14 µM) | 0.505 (≈ 1.35 µM) | 1.38 (≈ 3.7 µM) | > 40 | 0.487 (≈ 1.31 µM) | 0.55 (≈ 1.47 µM) |  |  |  |  |  |  |  |  |  | 
5 | COc1cc2c(c(OC)c1OC)-c1ccc(SC)c(=O)cc1[C@@H](N(C)S(=O)(=O)c1ccccc1[N+](=O)[O-])CC2 | 0.129 (≈ 0.225 µM) | 0.0312 (≈ 0.0545 µM) | 0.153 (≈ 0.266 µM) | 0.92 | 0.0285 (≈ 0.0498 µM) | 0.035 (≈ 0.0611 µM) | 0.12 (≈ 0.21 µM) |  |  |  |  |  |  |  |  | 
6 | COc1cc2c(c(OC)c1OC)-c1ccc(SC)c(=O)cc1[C@@H](NS(=O)(=O)c1ccccc1[N+](=O)[O-])CC2 | 0.0209 (≈ 0.0374 µM) | 0.0129 (≈ 0.0231 µM) | 0.112 (≈ 0.2 µM) | 1.1 | 0.0126 (≈ 0.0226 µM) | 0.01 (≈ 0.0179 µM) | 0.027 (≈ 0.0483 µM) |  |  |  |  |  |  |  |  | 
7 | CCN([C@H]1CCc2cc(OC)c(OC)c(OC)c2-c2ccc(SC)c(=O)cc21)S(=O)(=O)c1ccccc1[N+](=O)[O-] | 0.212 (≈ 0.361 µM) | 0.163 (≈ 0.278 µM) | 0.174 (≈ 0.296 µM) | 4.2 | 0.148 (≈ 0.253 µM) | 0.13 (≈ 0.222 µM) | 0.52 (≈ 0.886 µM) |  |  |  |  |  |  |  |  | 
8 | COc1cc2c(c(OC)c1OC)-c1ccc(SC)c(=O)cc1[C@@H](N(C)C)CC2.O=C(O)CCC(=O)O | 0.19 | 0.124 | 0.125 | 3.6 | 0.0129 | 0.12 | 0.022 | 103 | 10 | 10 | 10 | 10 | 10 | 10 | 10 | 10
9 | CCN(CC)[C@H]1CCc2cc(OC)c(OC)c(OC)c2-c2ccc(SC)c(=O)cc21.O=C(O)CCC(=O)O | 0.181 | 0.125 | 0.151 | 16 | 0.136 | 0.063 | 0.11 | 107 |  |  |  |  |  |  |  | 
10 | COc1cc2c(c(OC)c1OC)-c1ccc(OC)c(=O)cc1[C@@H](NC(C)=O)CC2 [COLCHICINE] | 0.0199 (≈ 0.0498 µM) | 0.0027 (≈ 0.00676 µM) | 0.158 (≈ 0.395 µM) |  | 0.0027 (≈ 0.00676 µM) | 0.0038 (≈ 0.00951 µM) | 0.054 (≈ 0.135 µM) |  |  |  |  |  |  |  |  | 
11 | CN[C@H]1CCc2cc(OC)c(O)c(OC)c2-c2ccc(SC)c(=O)cc21.O=C(O)CCC(=O)O | 1.26 | 0.342 | 1.35 | 23 | 0.39 | 0.35 | > 1 | 95 |  |  |  |  |  |  |  | 
12 | CCCN([C@H]1CCc2cc(OC)c(OC)c(OC)c2-c2ccc(SC)c(=O)cc21)S(=O)(=O)c1ccccc1[N+](=O)[O-] | 1.63 (≈ 2.72 µM) | 0.357 (≈ 0.595 µM) | 1.36 (≈ 2.27 µM) | > 40 | 0.616 (≈ 1.02 µM) | 0.96 (≈ 1.6 µM) | > 1 |  |  |  |  |  |  |  |  | 
